Results on one molecule are retold here after patent publication US11013228B2, “Method of processing allograft skin for transplantation, and cryopreserved allograft skin produced thereby” (CG BIO CO., LTD., priority 2009, dated 2021).

This assay has as its system pig skin. Nature of the assay: TUNEL assay, cell death rate according to sucrose concentration in the cryoprotectant. The following applies: for cell death rate, AVE: average of 6 samples. In kind it is cell-based. As to the method:
Because human skin tissue harvested from a donor (cadaver) is prohibited from being used in an experiment, pig skin—which is the closest to human skin—is used for preparing ten (10) of both cryopreserved skins and glycerol-preserved skins according to the following methods of Example and Comparative Example. To investigate the change of the cell death rate according to the difference of sucrose concentration, the cryopreserved allograft skin was prepared by the same method as in the Example except that the sucrose concentration in the cryoprotectant was 5, 10, 15, 20, 25, 30, 35 and 40 wt %, and it was then analyzed by TUNEL assay. TUNEL assay was carried out by using an In Situ Cell Death Detection Kit, Fluorescein (Roche, Germany) according to the manufacturer's instructions, and 4′,6-diamidino-2-phenylindole (DAPI) was used as a fluorescent marker. The results of cell death rate are shown in the following Table 1, and represented in FIG. 6 as a graph.

The structures appear in SMILES notation. Where “and” joins values, the source holds several entries; their conditions need not be identical. Equal entries are not always repeated.

Turning to `OC[C@H]1O[C@@](CO)(O[C@H]2O[C@H](CO)[C@@H](O)[C@H](O)[C@H]2O)[C@@H](O)[C@@H]1O` [Sucrose, sucrose], the cell death rate result runs as follows: (sucrose 25 to 40 wt % in the final concentration, Table 1 and FIG. 6) “quite low”; (sucrose conc. 5 wt % in cryoprotectant, individual samples n 1-6) 65% and 45% and 36% and 64% and 39% and 41%; (sucrose conc. 10 wt % in cryoprotectant, individual samples n 1-6) 26% and 49% and 55% and 57% and 56% and 41%; (sucrose conc. 15 wt % in cryoprotectant, individual samples n 1-6) 25% and 31% and 22% and 47% and 57% and 66%; (sucrose conc. 20 wt % in cryoprotectant, individual samples n 1-6) 43% and 35% and 21% and 22% and 23% and 68%; (sucrose conc. 25 wt % in cryoprotectant, individual samples n 1-6) 19% and 23% and 28% and 64% and 12% and 20%. For the same molecule, the cell death rate was 20% (2×) and 23% and 39% and 11% and 5% (sucrose conc. 30 wt % in cryoprotectant, individual samples n 1-6); 30% and 25% and 10% and 23% and 28% and 21% (sucrose conc. 35 wt % in cryoprotectant, individual samples n 1-6); 13% and 36% and 33% and 41% and 26% and 20% (sucrose conc. 40 wt % in cryoprotectant, individual samples n 1-6). The “cell death rate, AVE” value was 48% (sucrose conc. 5 wt % in cryoprotectant); 47% (sucrose conc. 10 wt % in cryoprotectant); 41% (sucrose conc. 15 wt % in cryoprotectant); 35% (sucrose conc. 20 wt % in cryoprotectant); 28% (sucrose conc. 25 wt % in cryoprotectant); 20% (sucrose conc. 30 wt % in cryoprotectant). The “cell death rate, AVE” value (sucrose conc. 35 wt % in cryoprotectant) came to 23% and the “cell death rate, AVE” value (sucrose conc. 40 wt % in cryoprotectant) stood at 28%.
